Experimental data published in PubChem BioAssay AID248 (DTP/NCI, 2004).
Where “and” joins values, the source holds several entries; their conditions need not be identical. Equal values may be shown once. Inconclusive results and toxic doses are left out. Cut-off read from the data, not from the text of the source: active = T/C of 150% or more; inactive = T/C below 125%.

Tested on: L1210 leukemia ip in BDF1 mice, survival T/C
Assay: NCI In Vivo Anticancer Drug Screen. Data for tumor model L1210 Leukemia (intraperitoneal) in B6D2F1 (BDF1) mice
Settings: endpoint: mean survival time, higher = longer survival
Method in brief: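 Transplantable tumor model; survival measured in treated vs vehicle control mice. Value = treated/control.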

[1] = dose: 100.0 mg/kg/injection, schedule: Q01DX009 (ip), vehicle: Klucel (hydroxypropylcellulose) (HPC)
[2] = dose: 200.0 mg/kg/injection, schedule: Q01DX009 (ip), vehicle: Klucel (hydroxypropylcellulose) (HPC)
[3] = dose: 400.0 mg/kg/injection, schedule: Q01DX009 (ip), vehicle: Klucel (hydroxypropylcellulose) (HPC)
[4] = dose: 100.0 mg/kg/injection, schedule: Q01DX001 (ip), vehicle: saline
[5] = dose: 200.0 mg/kg/injection, schedule: Q01DX001 (ip), vehicle: saline
[6] = dose: 50.0 mg/kg/injection, schedule: Q01DX001 (ip), vehicle: carboxymethylcellulose (CMC)
[7] = dose: 100.0 mg/kg/injection, schedule: Q01DX001 (ip), vehicle: carboxymethylcellulose (CMC)
[8] = dose: 200.0 mg/kg/injection, schedule: Q01DX001 (ip), vehicle: carboxymethylcellulose (CMC)
[9] = dose: 400.0 mg/kg/injection, schedule: Q01DX001 (ip), vehicle: carboxymethylcellulose (CMC)
[10] = dose: 25.0 mg/kg/injection, schedule: Q01DX009 (ip), vehicle: Klucel (hydroxypropylcellulose) (HPC)
[11] = dose: 50.0 mg/kg/injection, schedule: Q01DX009 (ip), vehicle: Klucel (hydroxypropylcellulose) (HPC)
[12] = dose: 50.0 mg/kg/injection, schedule: Q01DX009 (ip), vehicle: saline with Tween-80
[13] = dose: 100.0 mg/kg/injection, schedule: Q01DX009 (ip), vehicle: saline with Tween-80
[14] = dose: 100.0 mg/kg/injection, schedule: Q04DX003 (ip), vehicle: saline with Tween-80
[15] = dose: 200.0 mg/kg/injection, schedule: Q01DX009 (ip), vehicle: saline with Tween-80
[16] = dose: 200.0 mg/kg/injection, schedule: Q04DX003 (ip), vehicle: saline with Tween-80
[17] = dose: 100.0 mg/kg/injection, schedule: Q04DX003 (ip), vehicle: Klucel (hydroxypropylcellulose) (HPC)
[18] = dose: 200.0 mg/kg/injection, schedule: Q04DX003 (ip), vehicle: Klucel (hydroxypropylcellulose) (HPC)
[19] = dose: 400.0 mg/kg/injection, schedule: Q04DX003 (ip), vehicle: Klucel (hydroxypropylcellulose) (HPC)

Measured: T/C

C=C1CC2(OC1=O)C(=O)N(C)c1ccccc12 (stereo unspecified)
inactive: dose: 25.0 mg/kg/injection, schedule: Q04DX002 (ip), vehicle: gum acacia 101 % of control | dose: 50.0 mg/kg/injection, schedule: Q04DX002 (ip), vehicle: gum acacia 97 % of control

CN(C)c1ccc(/C=N/NC(=S)Nc2ccccc2)cc1
inactive: [1] 109 % of control | [2] 98 % of control | [3] 94 % of control

O=C(Nc1ccc(Br)cc1C(=O)O)c1cccc(Br)c1
inactive: dose: 100.0 mg/kg/injection, schedule: Q01DX001 (ip), vehicle: other 103 % of control

O=[N+]([O-])c1ccc2cccnc2c1
inactive: dose: 75.0 mg/kg/injection, schedule: Q01DX001 (ip), vehicle: carboxymethylcellulose (CMC) 106 % of control | dose: 150.0 mg/kg/injection, schedule: Q01DX001 (ip), vehicle: carboxymethylcellulose (CMC) 104 % of control | dose: 300.0 mg/kg/injection, schedule: Q01DX001 (ip), vehicle: carboxymethylcellulose (CMC) 101 % of control

CC(=O)OCC(OC(C)=O)C(OC(C)=O)C(/C=C/N=[N+]([O-])c1ccccc1)OC(C)=O (stereo unspecified)
inactive: dose: 50.0 mg/kg/injection, schedule: Q01DX001 (ip), vehicle: saline 100 % of control | [4] 94 % of control | [5] 100 % of control

O=S(=O)(Sc1ccc(N(CCCl)CCCl)cc1)c1ccc(N(CCCl)CCCl)cc1
inactive: [6] 109 % of control | [7] 100 % of control | [8] 117 % of control | [9] 109 % of control

Cc1cc(N(CCCl)CCCl)ccc1C=Nc1cccc(Cl)c1
inactive: [6] 100 % of control | [7] 107 % of control | [8] 100 % of control | [9] 94 % of control

Cc1cc(C)c(-n2c(C)nc3ccccc3c2=O)c([N+](=O)[O-])c1
inactive: dose: 12.5 mg/kg/injection, schedule: Q01DX009 (ip), vehicle: Klucel (hydroxypropylcellulose) (HPC) 96 % of control | [10] 104 % of control | [11] 89 % of control | [1] 109 % of control

CCN(CC)CCOC(=O)C1c2ccccc2Oc2ccccc21
inactive: [7] 102 % of control | [8] 94 % of control

CN(C)N=Nc1cc2c(cc1O)CC[C@@H]1[C@@H]2CC[C@]2(C)C(=O)CC[C@@H]12
inactive: [10] 97 % of control | [11] 90 % of control | dose: 50.0 mg/kg/injection, schedule: Q04DX002 (ip), vehicle: Klucel (hydroxypropylcellulose) (HPC) 90 % of control | [1] 110 % of control | dose: 100.0 mg/kg/injection, schedule: Q04DX002 (ip), vehicle: Klucel (hydroxypropylcellulose) (HPC) 90 % of control | [2] 103 % of control | dose: 200.0 mg/kg/injection, schedule: Q04DX002 (ip), vehicle: Klucel (hydroxypropylcellulose) (HPC) 87 % of control | [3] 96 % of control

COC(=O)/C(C#N)=N/O
inactive: [12] 102 % of control | [13] 97 % of control | [14] 100 % of control | [15] 94 % of control | [16] 94 % of control

C/C=C1\C[C@@H]2C(OC)Nc3cc(O)c(OC)cc3C(=O)N2C1 (stereo partly specified)
inactive: dose: 0.02 mg/kg/injection, schedule: Q01DX009 (ip), vehicle: saline 98 % of control | dose: 0.04 mg/kg/injection, schedule: Q01DX009 (ip), vehicle: saline 98 % of control | dose: 0.09 mg/kg/injection, schedule: Q01DX009 (ip), vehicle: saline 92 % of control | dose: 0.18 mg/kg/injection, schedule: Q01DX009 (ip), vehicle: saline 101 % of control | dose: 0.18 mg/kg/injection, schedule: Q04DX002 (ip), vehicle: saline 100 % of control | dose: 0.37 mg/kg/injection, schedule: Q04DX002 (ip), vehicle: saline 100 % of control | dose: 0.75 mg/kg/injection, schedule: Q04DX002 (ip), vehicle: saline 110 % of control

c1ccc(Cc2cncc(Cc3ccccc3)n2)cc1
inactive: [17] 101 % of control | [18] 97 % of control | [19] 98 % of control

O=c1c2ccccc2n2nnc3cccc1c32
inactive: dose: 100.0 mg/kg/injection, schedule: Q01DX001 (ip), vehicle: Klucel (hydroxypropylcellulose) (HPC) 97 % of control and 88 % of control | [17] 91 % of control | dose: 200.0 mg/kg/injection, schedule: Q01DX001 (ip), vehicle: Klucel (hydroxypropylcellulose) (HPC) 87 % of control | [18] 95 % of control | dose: 400.0 mg/kg/injection, schedule: Q01DX001 (ip), vehicle: Klucel (hydroxypropylcellulose) (HPC) 92 % of control

C#CC(C)(C)CC(=O)O
inactive: [14] 98 % of control | [16] 95 % of control | dose: 400.0 mg/kg/injection, schedule: Q04DX003 (ip), vehicle: saline with Tween-80 92 % of control

O=C(O)c1cc(/C=C/c2ccccc2)ccc1[N+](=O)[O-]
inactive: dose: 100.0 mg/kg/injection, schedule: Q04DX003 (ip), vehicle: saline 103 % of control | dose: 200.0 mg/kg/injection, schedule: Q04DX003 (ip), vehicle: saline 97 % of control | dose: 400.0 mg/kg/injection, schedule: Q04DX003 (ip), vehicle: saline 100 % of control

Nc1cccc(Nc2cc(S(=O)(=O)O)c(N)c3c2C(=O)c2ccccc2C3=O)c1
inactive: dose: 5.0 mg/kg/injection, schedule: Q01DX001 (ip), vehicle: saline 100 % of control | dose: 10.0 mg/kg/injection, schedule: Q01DX001 (ip), vehicle: saline 94 % of control | dose: 20.0 mg/kg/injection, schedule: Q01DX001 (ip), vehicle: saline 100 % of control | dose: 40.0 mg/kg/injection, schedule: Q01DX001 (ip), vehicle: saline 100 % of control | dose: 80.0 mg/kg/injection, schedule: Q01DX001 (ip), vehicle: saline 103 % of control | [4] 93 % of control | [5] 100 % of control

C=C(Cl)CC1(C(=O)OCC)CCN(S(=O)(=O)c2ccc(C)cc2)c2ccccc2C1=O (stereo unspecified)
inactive: [17] 94 % of control | [18] 98 % of control | [19] 88 % of control

Cc1ccc2ccccc2c1OC(C)C(=O)O (stereo unspecified)
inactive: [12] 108 % of control | [13] 95 % of control | dose: 100.0 mg/kg/injection, schedule: Q04DX003 (ip), vehicle: alcohol 95 % of control | [15] 113 % of control | dose: 200.0 mg/kg/injection, schedule: Q04DX003 (ip), vehicle: alcohol 93 % of control

OC[C@@H]1CC[C@H](n2cnc3c(Cl)ncnc32)C1
inactive: [4] 103 % of control | [5] 101 % of control | dose: 400.0 mg/kg/injection, schedule: Q01DX001 (ip), vehicle: saline 101 % of control

COc1n[n+]([O-])c(Cl)c(C)c1[N+](=O)[O-]
inactive: dose: 100.0 mg/kg/injection, schedule: Q04DX002 (ip), vehicle: saline with Tween-80 105 % of control | dose: 200.0 mg/kg/injection, schedule: Q04DX002 (ip), vehicle: saline with Tween-80 102 % of control | dose: 400.0 mg/kg/injection, schedule: Q04DX002 (ip), vehicle: saline with Tween-80 96 % of control
